The source of these data is ChEMBL document CHEMBL1201862, “PubChem BioAssay data set” (2004).

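How tested: cells in 96-well plates exposed to compound for 48 hours at five concentrations. GI50: concentration for 50% inhibition of growth.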 The source made the active and inactive calls. No stated cut-off is given here; in the data, active = GI50 up to about 1.1 µM and inactive = higher.

Test systems include CAKI-1; DLD-1; DMS-114; HCC 2998; HCT-15; LXFL 529; NCI-H23; SF-268; SF-295; SK-MEL-28; SN12C; SNB-19; SNB-75; SNB-78; U-251; UACC-62; LOX IMVI.
Holding throughout (assay): growth of human tumour cells (NCI), 48 h

Take `Cc1nc(N)nn1C1OCC(O)C(O)C1O` (configuration not stated): the GI50 with CAKI-1 was > 100 µM (inactive); in the assay on DLD-1, > 100 µM (inactive); in the assay on DMS-114, > 100 µM (inactive); with HCC 2998, > 100 µM (inactive); in the assay with HCT-15 it was more than 100 µM; with LXFL 529, > 100 µM (inactive). Further, the GI50 in the assay with NCI-H23, in the assay on SF-268, in the assay with SF-295, with SK-MEL-28, in the assay with SN12C and with SNB-19 was > 100 µM (inactive) in each case. Further, the GI50 in the assay on SNB-75 was 93.5 µM (inactive); with SNB-78, > 100 µM (inactive); in the assay with U-251 it was > 100 µM (inactive); with UACC-62, > 100 µM (inactive).

For `NC(=O)c1csc(CCCCCCc2nc(C(N)=O)cs2)n1`, the GI50 is > 100 µM (inactive) with CAKI-1; > 73.6 µM (inactive) in the assay with DLD-1; > 71.3 µM (inactive) with DMS-114; > 100 µM (inactive) with HCC 2998; more than 100 µM with HCT-15; > 61.7 µM (inactive) in the assay on LOX IMVI. Moreover, the GI50 in the assay with LXFL 529, in the assay with NCI-H23, in the assay on SF-268, in the assay with SF-295, in the assay on SK-MEL-28 and in the assay on SN12C was > 100 µM (inactive) throughout. For the same compound, the GI50 in the assay with SNB-19 was > 100 µM (inactive); in the assay with SNB-75, > 100 µM (inactive); in the assay with SNB-78, > 100 µM (inactive); in the assay with U-251 it was > 42.5 µM (inactive); with UACC-62, > 100 µM (inactive).

Turning to `CC1NOC(=O)C1/N=N/c1ccccc1Cl` (configuration not stated), the GI50 is 25.5 µM (inactive) in the assay with CAKI-1; 39.4 µM (inactive) with DLD-1; 34.7 µM (inactive) in the assay on DMS-114; 48.3 µM (inactive) in the assay on HCC 2998; 20.6 µM (inactive) in the assay on LOX IMVI; 45.5 µM (inactive) in the assay on LXFL 529. The GI50 in the assay on NCI-H23 is 29.9 µM (inactive); in the assay on SF-268, 35.1 µM (inactive); in the assay on SF-295, 74.1 µM (inactive); with SK-MEL-28 it was 32.7 µM (inactive); with SN12C, 40.6 µM (inactive); in the assay with SNB-19 it was 51.1 µM (inactive). The GI50 is 21.2 µM (inactive) in the assay with SNB-75, 52.5 µM (inactive) with SNB-78, 42.4 µM (inactive) with U-251 and 31.1 µM (inactive) in the assay with UACC-62.

For `CNC(C)Cc1ccc(O)cc1` (configuration not stated), the GI50 in the assay on CAKI-1 is > 100 µM (inactive); in the assay with DLD-1 it was > 100 µM (inactive); with DMS-114 it was > 100 µM (inactive); in the assay on HCC 2998 it was > 100 µM (inactive); in the assay on HCT-15 it was more than 100 µM; in the assay with LOX IMVI it was > 100 µM (inactive). Further, the GI50 in the assay with LXFL 529, in the assay on NCI-H23, with SF-268, in the assay on SF-295, in the assay with SK-MEL-28 and in the assay on SN12C was > 100 µM (inactive) throughout. Also, the GI50 in the assay with SNB-19, with SNB-75, in the assay with SNB-78, in the assay with U-251 and in the assay with UACC-62 was > 100 µM (inactive) each time.

In the case of `Cc1nc(-c2nc([N+](=O)[O-])c([N+](=O)[O-])[nH]2)cs1`, the GI50 in the assay with CAKI-1, in the assay with DLD-1, with DMS-114, with HCC 2998, in the assay on LOX IMVI and in the assay on LXFL 529 was > 100 µM (inactive) in each case. Moreover, the GI50 is > 100 µM (inactive) in the assay with NCI-H23; 88.9 µM (inactive) with SF-268; > 100 µM (inactive) with SF-295; > 100 µM (inactive) in the assay on SK-MEL-28; > 100 µM (inactive) in the assay with SN12C; > 100 µM (inactive) with SNB-19. Besides, the GI50 in the assay on SNB-75, with SNB-78, in the assay with U-251 and in the assay with UACC-62 was > 100 µM (inactive) in each case.
